Data taken from patent US12187712B2, “Cardiac sarcomere inhibitors” (Cytokinetics, Inc., priority 2018, dated 2025).

Each compound was assayed against T1, bovine cardiac myofibrils (Bos taurus, UniProt Q9BE39) (assay: Skinned myofibril ATPase assay (PK/LDH-coupled), CDMF75). Conditions: inhibition of steady-state ATPase activity of bovine cardiac myofibrils at 75% Ca2+ activation (pCa75).
T1 construct: full-length cardiac myosin in the context of the native sarcomere, skinned myofibril assays were performed; from tissue; host or cells: bovine cardiac left ventricular tissue, detergent-skinned (Triton X-100) myofibrils
T1 sequence (Q9BE39 whole entry): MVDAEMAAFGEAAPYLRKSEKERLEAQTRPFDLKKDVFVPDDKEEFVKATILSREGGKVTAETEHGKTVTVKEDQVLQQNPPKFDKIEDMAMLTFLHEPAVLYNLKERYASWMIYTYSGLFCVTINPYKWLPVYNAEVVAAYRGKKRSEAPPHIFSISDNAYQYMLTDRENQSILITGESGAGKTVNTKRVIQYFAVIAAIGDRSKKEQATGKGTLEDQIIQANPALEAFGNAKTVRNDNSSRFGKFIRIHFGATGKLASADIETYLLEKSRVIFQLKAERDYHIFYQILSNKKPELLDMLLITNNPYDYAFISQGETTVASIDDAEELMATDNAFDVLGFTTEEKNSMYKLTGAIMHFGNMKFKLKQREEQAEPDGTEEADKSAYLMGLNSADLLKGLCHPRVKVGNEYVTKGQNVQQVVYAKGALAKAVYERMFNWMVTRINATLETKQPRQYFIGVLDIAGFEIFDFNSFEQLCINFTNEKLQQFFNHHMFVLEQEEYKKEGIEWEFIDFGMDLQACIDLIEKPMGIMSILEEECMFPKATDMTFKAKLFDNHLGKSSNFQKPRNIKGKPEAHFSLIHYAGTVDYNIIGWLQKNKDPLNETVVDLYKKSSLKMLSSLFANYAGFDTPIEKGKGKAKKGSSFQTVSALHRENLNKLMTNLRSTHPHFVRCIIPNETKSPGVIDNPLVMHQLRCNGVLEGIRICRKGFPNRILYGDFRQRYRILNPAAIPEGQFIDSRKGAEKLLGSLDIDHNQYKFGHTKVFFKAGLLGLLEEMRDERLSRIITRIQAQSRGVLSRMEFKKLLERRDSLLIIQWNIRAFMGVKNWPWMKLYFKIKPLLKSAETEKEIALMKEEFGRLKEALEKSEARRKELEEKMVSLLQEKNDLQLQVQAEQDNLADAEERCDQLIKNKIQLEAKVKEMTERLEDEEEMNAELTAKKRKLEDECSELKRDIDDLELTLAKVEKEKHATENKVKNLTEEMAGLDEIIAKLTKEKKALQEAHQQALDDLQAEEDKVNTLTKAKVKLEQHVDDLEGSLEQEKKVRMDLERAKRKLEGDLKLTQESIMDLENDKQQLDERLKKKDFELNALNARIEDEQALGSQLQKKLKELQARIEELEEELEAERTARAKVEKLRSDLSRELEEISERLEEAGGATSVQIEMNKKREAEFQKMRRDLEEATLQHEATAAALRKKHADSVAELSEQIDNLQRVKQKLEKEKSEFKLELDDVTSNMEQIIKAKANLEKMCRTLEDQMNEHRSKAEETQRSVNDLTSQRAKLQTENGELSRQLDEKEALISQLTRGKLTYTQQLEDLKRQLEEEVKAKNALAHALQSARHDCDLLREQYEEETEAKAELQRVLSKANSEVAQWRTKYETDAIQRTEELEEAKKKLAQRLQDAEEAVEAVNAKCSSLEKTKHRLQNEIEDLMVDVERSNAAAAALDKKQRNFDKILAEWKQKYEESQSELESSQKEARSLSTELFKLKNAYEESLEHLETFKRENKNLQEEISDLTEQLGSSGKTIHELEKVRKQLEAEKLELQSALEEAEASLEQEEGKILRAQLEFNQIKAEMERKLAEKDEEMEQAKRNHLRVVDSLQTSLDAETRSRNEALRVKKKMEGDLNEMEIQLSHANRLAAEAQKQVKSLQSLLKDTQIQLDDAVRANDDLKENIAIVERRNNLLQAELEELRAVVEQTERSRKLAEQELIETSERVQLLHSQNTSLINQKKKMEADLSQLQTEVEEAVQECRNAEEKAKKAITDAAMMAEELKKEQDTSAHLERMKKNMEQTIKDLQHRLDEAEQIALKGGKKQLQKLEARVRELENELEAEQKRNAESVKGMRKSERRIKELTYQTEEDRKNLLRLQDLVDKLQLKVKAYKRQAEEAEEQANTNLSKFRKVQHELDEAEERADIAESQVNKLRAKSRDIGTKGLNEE
T1 sequence (P85100 whole entry partner): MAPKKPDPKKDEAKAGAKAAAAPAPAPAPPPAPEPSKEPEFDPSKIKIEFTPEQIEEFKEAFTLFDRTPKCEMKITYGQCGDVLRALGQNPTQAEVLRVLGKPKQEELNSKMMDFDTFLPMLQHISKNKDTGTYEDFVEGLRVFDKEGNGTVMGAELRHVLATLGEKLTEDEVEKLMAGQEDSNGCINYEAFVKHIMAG
T1 sequence (Q3SZE5 whole entry partner): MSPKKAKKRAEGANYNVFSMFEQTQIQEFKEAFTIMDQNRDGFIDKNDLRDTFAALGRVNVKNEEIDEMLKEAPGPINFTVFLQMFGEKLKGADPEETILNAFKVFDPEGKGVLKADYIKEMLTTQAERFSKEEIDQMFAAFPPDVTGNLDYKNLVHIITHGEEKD
Assay type: biochemical
Method: To evaluate the effect of compounds on the ATPase activity of full-length cardiac myosin in the context of the native sarcomere, skinned myofibril assays were performed. Bovine cardiac myofibrils were obtained by homogenizing bovine cardiac left ventricular tissue in the presence of a detergent such as triton X-100. Such treatment removes membranes and a majority of the soluble cytoplasmic proteins but leaves intact the cardiac sarcomeric acto-myosin apparatus. Myofibril preparations retain the ability to hydrolyze ATP in an Ca^2+ regulated manner. ATPase activities of such myofibril preparations in the presence and absence of compounds were assayed at Ca^2+ concentrations activating to a defined fraction of the maximal rate (i.e., 25%, 75%). Small molecule agents were assessed for their ability to inhibit the steady-state ATPase activity of bovine cardiac myofibrils using pyruvate kinase and lactate dehydrogenase (PK/LDH)-coupled enzyme system. This assay regenerates myosin-produced ADP into ATP by oxidizing NADH, producing an absorbance change at 340 nm. Prior to testing small molecule agents, the bovine cardiac myofibrils were assessed for their calcium responsiveness and the calcium concentration that achieves either a 50% (pCa50) or 75% (pCa75) activation of the myofibril system was chosen as the final condition for assessing the inhibitory activity of the small molecule agents. All enzymatic activity was measured in a buffered solution containing 12 mM PIPES (piperazine-N,N′-bis(2-ethanesulfonic acid), 2 mM magnesium chloride at pH 6.8 (PM 12 buffer). Final assay conditions were 1 mg/mL of bovine cardiac myofibrils, 4 U/mL pyruvate kinase, 6 U/mL lactate dehydrogenase, 50 μM ATP, 0.1 mg/mL BSA (bovine serum albumin), 10 ppm antifoam, 1 mM DTT, 0.5 mM NADH, 1.5 mM PEP, 0.6 mM EGTA, and an amount of CaCl2 sufficient to achieve either 50% or 75% activation of the myofibril ATPase activity. Results for compounds tested are provided in Table A. Compounds tested were prepared in accordance with the synthetic procedures described herein.

Row | CDMF75 IC15 [µM] | IC50 [µM] | Structure (SMILES)
1 | 0.7 | 3 | CC(C)c1nc(-c2ccc([C@@H](C)Nc3cnccn3)cc2)no1 [Compound 35, (R)-N-(1-(4-(5-isopropyl-1,2,4-oxadiazol-3-yl)phenyl)ethyl)pyrazin-2-amine]
2 | 7.1 | 36.5 | C[C@@H](Nc1cnccn1)c1ccc(-c2noc(C(C)(C)C)n2)cc1 [Compound 36, (R)-N-(1-(4-(5-(tert-butyl)-1,2,4-oxadiazol-3-yl)phenyl)ethyl)pyrazin-2-amine]
3 | 1.3 | 5.6 | C[C@@H](Nc1cnccn1)c1ccc(-c2noc(-c3ccccc3)n2)cc1 [Compound 37, (R)-N-(1-(4-(5-phenyl-1,2,4-oxadiazol-3-yl)phenyl)ethyl)pyrazin-2-amine]
4 | 3.0 | 19.1 | Cc1cc(-c2nc(-c3ccc([C@@H](C)Nc4cnccn4)cc3)no2)on1 [Compound 38, (R)-N-(1-(4-(5-(3-methylisoxazol-5-yl)-1,2,4-oxadiazol-3-yl)phenyl)ethyl)pyrazin-2-amine]
5 | 0.2 | 0.9 | C[C@@H](Nc1cnccn1)c1ccc(-c2noc(-c3ccco3)n2)cc1 [Compound 39, (R)-N-(1-(4-(5-(furan-2-yl)-1,2,4-oxadiazol-3-yl)phenyl)ethyl)pyrazin-2-amine]
6 | 0.3 | 1.1 | C[C@@H](Nc1cnccn1)c1ccc(-c2noc(-c3cccs3)n2)cc1 [Compound 40, (R)-N-(1-(4-(5-(thiophen-2-yl)-1,2,4-oxadiazol-3-yl)phenyl)ethyl)pyrazin-2-amine]
7 | 0.7 | 3.9 | Cc1nc(-c2ccc(CNc3cnccn3)cc2F)no1 [Compound 41, N-(3-fluoro-4-(5-methyl-1,2,4-oxadiazol-3-yl)benzyl)pyrazin-2-amine]
8 | 0.8 | 4.8 | Fc1cc(CNc2cnccn2)ccc1-c1noc(C(F)(F)F)n1 [Compound 42, N-(3-fluoro-4-(5-(trifluoromethyl)-1,2,4-oxadiazol-3-yl)benzyl)pyrazin-2-amine]
9 | 0.4 | 1.7 | C[C@@H](Nc1cnccn1)c1ccc(-c2noc(-c3ccsc3)n2)cc1 [Compound 43, (R)-N-(1-(4-(5-(thiophen-3-yl)-1,2,4-oxadiazol-3-yl)phenyl)ethyl)pyrazin-2-amine]
10 | 2.2 | 10.9 | Cc1nc(-c2ccc(CNc3ccnc(Cl)c3)cc2)no1 [Compound 44, 2-chloro-N-(4-(5-methyl-1,2,4-oxadiazol-3-yl)benzyl)pyridin-4-amine]
11 | 0.9 | 4 | Fc1cc(-c2noc(C(F)(F)F)n2)ccc1CNc1cnccn1 [Compound 45, N-(2-fluoro-4-(5-(trifluoromethyl)-1,2,4-oxadiazol-3-yl)benzyl)pyrazin-2-amine]
12 | 0.4 | 2.2 | Cc1nc(-c2ccc(CNc3cnccn3)c(F)c2)no1 [Compound 46, N-(2-fluoro-4-(5-methyl-1,2,4-oxadiazol-3-yl)benzyl)pyrazin-2-amine]
13 | 0.3 | 1.7 | Fc1cc(-c2noc(C3CC3)n2)ccc1CNc1cnccn1 [Compound 47, N-(4-(5-cyclopropyl-1,2,4-oxadiazol-3-yl)-2-fluorobenzyl)pyrazin-2-amine]
14 | 4.0 | 19 | Cc1cnc(-c2ccc(CNc3cnccn3)cc2)s1 [Compound 48, N-[[4-(5-methyl-1,3-thiazol-2-yl)phenyl]methyl]pyrazin-2-amine]
15 | 0.3 | 28.6 | Cc1cnc(-c2ccc(CNc3cnccn3)cc2)o1 [Compound 49, N-[[4-(5-methyl-1,3-oxazol-2-yl)phenyl]methyl]pyrazin-2-amine]
16 | 3.4 | 15.1 | Cc1nc(-c2ccc(CNC(=O)c3ccccc3)cc2)no1 [Compound 50, N-(4-(5-methyl-1,2,4-oxadiazol-3-yl)benzyl)benzamide]
17 | 0.2 | 0.9 | Cc1onc(-c2ccc(CNc3cnccn3)cc2)c1I [Compound 51, N-(4-(4-iodo-5-methylisoxazol-3-yl)benzyl)pyrazin-2-amine]
18 | 2.1 | 9.4 | Cc1cc(-c2ccc(CNc3cnccn3)cc2)on1 [Compound 53, N-(4-(3-methylisoxazol-5-yl)benzyl)pyrazin-2-amine]
19 | 6.0 | 25.8 | COC(=O)NCc1ccc(-c2noc(C)n2)cc1 [Compound 54, methyl (4-(5-methyl-1,2,4-oxadiazol-3-yl)benzyl)carbamate]
20 | 0.4 | 1.3 | Cc1nc(-c2ccc3c(c2)CCC3Nc2cnccn2)no1 (stereo not shown) [Compound 55, N-[5-(5-methyl-1,2,4-oxadiazol-3-yl)-2,3-dihydro-1H-inden-1-yl]pyrazin-2-amine]
21 | 1.2 | 4.7 | Cc1nc(-c2ccc(CNC(=O)Nc3ccccc3)cc2)no1 [Compound 56, 3-[[4-(5-methyl-1,2,4-oxadiazol-3-yl)phenyl]methyl]-1-phenylurea]
22 | 3.1 | 19.3 | Cc1nc(-c2ccc(CNC(=O)OCc3ccccc3)cc2)no1 [Compound 57, benzyl (4-(5-methyl-1,2,4-oxadiazol-3-yl)benzyl)carbamate]
23 | 0.7 | 2.2 | Cc1nc(-c2ccc3c(c2)CCCC3Nc2cnccn2)no1 (stereo not shown) [Compound 59, N-(6-(5-methyl-1,2,4-oxadiazol-3-yl)-1,2,3,4-tetrahydronaphthalen-1-yl)pyrazin-2-amine]
24 | 7.7 | 30.8 | Cc1nc(-c2ccc(CNC(=O)c3ccnc(N)c3)cc2)no1 [Compound 60, 2-amino-N-[[4-(5-methyl-1,2,4-oxadiazol-3-yl)phenyl]methyl]pyridine-4-carboxamide]
25 | 2.4 | 10.2 | Cc1cc(-c2ccc(CNc3cccc(=O)[nH]3)cc2)no1 [Compound 61, 6-([[4-(5-methyl-1,2-oxazol-3-yl)phenyl]methyl]amino)-1,2-dihydropyridin-2-one]
26 | 5.0 | 23 | Cc1cc(-c2ccc(CNc3cc[nH]n3)cc2)no1 [Compound 62, N-(4-(5-methylisoxazol-3-yl)benzyl)-1H-pyrazol-3-amine]
27 |  | > 39.2 | Cc1nc(-c2ccc(CNC(=O)c3ccncc3O)cc2)no1 [Compound 63, 3-hydroxy-N-(4-(5-methyl-1,2,4-oxadiazol-3-yl)benzyl)isonicotinamide]
28 | 7.7 | > 39.2 | Cc1cc(-c2ccc(CNc3ccn(C)n3)cc2)no1 [Compound 64, 1-methyl-N-(4-(5-methylisoxazol-3-yl)benzyl)-1H-pyrazol-3-amine]
29 | 7.6 | > 39.2 | Cc1cc(-c2ccc(CNc3cc(=O)[nH]cn3)cc2)no1 [Compound 65, 6-((4-(5-methylisoxazol-3-yl)benzyl)amino)pyrimidin-4(3H)-one]
30 | 0.3 | 1.7 | COc1cc(NCc2ccc(-c3cc(C)on3)cc2)ncn1 [Compound 66, 6-methoxy-N-(4-(5-methylisoxazol-3-yl)benzyl)pyrimidin-4-amine]

Row | Structure (SMILES) | CDMF75 IC15 [µM] | IC50 [µM]
31 | Cc1nc(-c2ccc(CNC(=O)Oc3ccccc3)cc2)no1 [Compound 58, phenyl (4-(5-methyl-1,2,4-oxadiazol-3-yl)benzyl)carbamate] | 2.3 | 11.4
